In paper PMC12490239, “Combining BET inhibition with SMAC mimetics restricts tumor growth and triggers immune surveillance in preclinical cancer models” (Cell Reports Medicine, 2025) one finds IC50 data, which are given here for one molecule.

What all share (assay): cells
Set-up in all cases: CellTiter-Glo 2.0 luminescence proliferation/viability assay, single agents, human tumour cell line panel

In one assay the test system is SW620. Conditions: Homo sapiens, SW-620, 96 h; single agent; read-out: IC50 SMACm. In short, it runs like this: (§1)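 Human tumour cell lines were seeded into assay plates and held at 37°C with 5% CO2 for twenty-four hours, then exposed in triplicate to rising concentrations of the SMAC mimetic, from 4.5 nM to 10 μM, with DMSO as control. After 96 h, viability was read as CellTiter-Glo2.0 luminescence to derive single-agent IC50 values.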

The subject of another assay is HCC2998. The note with it: Homo sapiens, HCC 2998, 96 h; single agent; read-out: IC50 SMACm. The procedure, abridged:
as §1

The test system of the next assay is NCI-H2228. The note with it: Homo sapiens, NCI-H2228, 96 h; single agent; read-out: IC50 SMACm. In short, it runs like this: as §1
The next assay has as its system SNU254. The note with it: 96 h; single agent; read-out: IC50 SMACm. The procedure, abridged:
as §1

In a further assay the test system is HRA16. The note with it: 96 h; single agent; read-out: IC50 SMACm. The procedure, abridged:
as §1

The test system of another assay is COR-L105. The note with it: Homo sapiens, COR-L105, 96 h; single agent; read-out: IC50 SMACm. The procedure, abridged: as §1
The test system of another assay is HT-115. The note with it: HT115, 96 h; single agent; read-out: IC50 SMACm. The procedure, abridged:
as §1

For a further assay, the system named is HARA. The note with it: 96 h; single agent; read-out: IC50 SMACm. The procedure, abridged: as §1
The subject of a further assay is SUIT-2. Conditions: SUIT-2, 96 h; single agent; read-out: IC50 SMACm. In short, it runs like this:
as §1

The subject of the next assay is COLO-205. Conditions: Homo sapiens, COLO 205, 96 h; single agent; read-out: IC50 SMACm. The procedure, abridged:
as §1

In a further assay the test system is LIM2551. The note with it: 96 h; single agent; read-out: IC50 SMACm. In short, it runs like this:
as §1

For another assay, the system named is CAR1. Conditions: Homo sapiens, CaR-1, 96 h; single agent; read-out: IC50 SMACm. In short, it runs like this:
as §1

A further assay deals with COLO-201. The note with it: Homo sapiens, COLO 201, 96 h; single agent; read-out: IC50 SMACm. In short, it runs like this:
as §1

A further assay has as its system HCC1195. The note with it: 96 h; single agent; read-out: IC50 SMACm. The procedure, abridged:
as §1

In the next assay the test system is KE-39. The note with it: 96 h; single agent; read-out: IC50 SMACm. The procedure, abridged: as §1

Take `CN[C@@H](C)C(=O)Nc1ccc(-c2c(-c3cccnc3OC)nc3cc(C)ccn23)c(C#Cc2ccc3c(C)nccc3c2)n1` [SMACm, BI 891065]: the IC50 amounted to 4.46 µM in the assay with SW620; 3.06 µM with HCC2998; 4.44 µM in the assay on NCI-H2228; 1.76 µM in the assay with SNU254; 3.99 µM in the assay on HRA16; 4.47 µM in the assay with COR-L105. The IC50 with HT-115 came out at 3.87 µM; in the assay on HARA, 3.97 µM; in the assay with SUIT-2, 4.77 µM; with COLO-205 it was 4.99 µM; with LIM2551, 2.25 µM; with CAR1 it was 2.1 µM. In addition, the IC50 with COLO-201 turned out to be 0.369 µM; with HCC1195, 4.59 µM; in the assay with KE-39, 3.86 µM.

As a reminder, the IC50 is the concentration that gives 50% inhibition.
